Counter-ions that a name gives are not always drawn. Like-named read-outs stand apart in the source and are kept apart here.
Legend:
[1] = test system: SUDHL5 cells; experiment: Induction of cytotoxicity in SUDHL5 cells (Assay 6); type: cell-based; conditions: 5 h, CellTiter-Glo, read-out: Cytotox SUDHL5 IC50 (median)
In short: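 Cells plated overnight at 37 °C, then exposed to compound for 5 h in a humidified incubator at 37 °C. Viability read by CellTiter-Glo luminescence after 15 min shaking at room temperature; cell-free medium served as control.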

[2] = test system: AMO-1 cells; experiment: Antiproliferation assay AMO-1 (Assay 7); type: cell-based
In short: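 Anti-proliferative effect was measured by CellTiter-Glo ATP luminescence after 72 h compound exposure at 37° C, following overnight plating. IC50s were derived using a parallel time-zero plate and DMSO-treated controls as reference points.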

[3] = molecular target: BCL-2 (Homo sapiens (Human), UniProt P10415); experiment: Protein-protein interaction assay BCL-2/Bad BH3 peptide (BCL-2 assay, TR-FRET); type: binding; conditions: read-out: BCL-2 Assay IC50 (median)
Chain of BCL-2 (P10415 1-211): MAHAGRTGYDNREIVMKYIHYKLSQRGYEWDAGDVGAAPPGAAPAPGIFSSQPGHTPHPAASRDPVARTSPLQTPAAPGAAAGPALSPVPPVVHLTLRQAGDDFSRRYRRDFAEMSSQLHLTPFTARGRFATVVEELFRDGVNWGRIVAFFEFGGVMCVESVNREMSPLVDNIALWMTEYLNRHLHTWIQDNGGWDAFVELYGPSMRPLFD
In short: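 His-tagged BCL-2 (aa 1-211, E. coli, 1 nM) preincubated 10 min at 22° C with compound (0.1 nM-20 μM), then 1 nM biotinylated Bad BH3 peptide with anti-His-Eu/streptavidin-XL665 added. Buffer: 50 mM Tris pH 7, 100 mM NaCl, 50 mM KF, 2 mM DTT. Incubated 1 h at 22° C, then overnight at 4° C. 665/620 ratio normalized; IC50 by 4-parameter fit.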

[4] = test system: SUDHL5 cells; experiment: Induction of caspase-3/7 activity in SUDHL5 cells (Assay 4); type: cell-based
In short: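 Caspase-3/7 activity measured in DLBCL lines after 3 h compound exposure at 37 °C, following overnight plating; Caspase-Glo 3/7 luminescence read after 1 h at 37 °C. Medium-only background subtracted, values normalized to mean of DMSO-treated cells.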

[5] = Homo sapiens, AMO1, 72 h, 72 h, CellTiter-Glo; read-out: Antiproli AMO-1 IC50 median
[6] = Homo sapiens, SU-DHL-5, 3 h, caspase-3/7 induction, 3 h; read-out: Caspase SUDHL5 EC50 (median)
[7] = read-out: Antiproli AMO-1 IC50 median; 72 h, CellTiter-Glo
[8] = read-out: Caspase SUDHL5 EC50 (median); caspase-3/7 induction, 3 h
[9] = 72 h, CellTiter-Glo; read-out: Antiproli AMO-1 IC50 median
[10] = caspase-3/7 induction, 3 h; read-out: Caspase SUDHL5 EC50 (median)

| SMILES | IC50 ([1]; Homo sapiens, SU-DHL-5, 5 h) [µM] | IC50 [2, 5] [µM] | IC50 [3] [µM] | EC50 [4, 6] [µM] | IC50 [1] [µM] | IC50 [2, 7] [µM] | EC50 [4, 8] [µM] | IC50 [2, 9] [µM] | EC50 [4, 10] [µM] |
| --- | --- | --- | --- | --- | --- | --- | --- | --- | --- |
| CCc1c2c(nn1C)C(c1ccccc1)OCCCCn1c(C(=O)O)c(CCCOc3cccc4cc(F)ccc34)c3ccc(Cl)c-2c31 (racemic) [Example 59, (rac)-4-chloro-3-ethyl-7-{3-[(6-fluoronaphthalen-1-yl)oxy]propyl}-2-methyl-(15-rac)-phenyl-2,10,11,12,13,15-hexahydropyrazolo[4′,3′:9,10][1,6]oxazacycloundecino[8,7,6-hi]indole-8-carboxylic Acid] | 0.64 | 0.753 | 13.2 | 0.43 | – | – | – | – | – |
| CCc1c2c(nn1C)C(CCN1CCOCC1)OCCCCn1c(C(=O)O)c(CCCOc3cccc4ccccc34)c3ccc(F)c-2c31 (single isomer, unassigned; enantiomer 2) [Example 12, 3-ethyl-4-fluoro-2-methyl-15-[2-(morpholin-4-yl)ethyl]-7-{3-[(naphthalen-1-yl)oxy]propyl}-2,10,11,12,13,15-hexahydropyrazolo[4′,3′:9,10][1,6]oxazacycloundecino[8,7,6-hi]indole-8-carboxylic Acid—N-ethylethanamine Salt (Enantiomer 2)] | – | – | > 20 | – | 3.3 | 12.1 | 2.7 | – | – |
| Cc1c2c(nn1C)C(CCN1CCOCC1)OCCCCn1c(C(=O)O)c(CCCOc3cccc4ccccc34)c3ccc(Cl)c-2c31 (racemic) [Example 13, (rac)-4-chloro-2,3-dimethyl-15-[2-(morpholin-4-yl)ethyl]-7-{3-[(naphthalen-1-yl)oxy]propyl}-2,10,11,12,13,15-hexahydropyrazolo[4′,3′:9,10][1,6]oxazacycloundecino[8,7,6-hi]indole-8-carboxylic Acid] | 0.089 | 0.191 | > 20 | 0.077 | – | – | – | – | – |
| Cc1c2c(nn1C)C(CCO)OCCCCn1c(C(=O)O)c(CCCOc3cccc4ccccc34)c3ccc(Cl)c-2c31 (racemic) [Example 26, (rac)-4-chloro-15-(2-hydroxyethyl)-2,3-dimethyl-7-{3-[(naphthalen-1-yl)oxy]propyl}-2,10,11,12,13,15-hexahydropyrazolo[4′,3′:9,10][1,6]oxazacycloundecino[8,7,6-hi]indole-8-carboxylic Acid] | 0.4 | 0.577 | > 20 | 0.12 | – | – | – | – | – |
| Cc1c2c(nn1C)C(CCN1CCOCC1)OCCCCn1c(C(=O)O)c(CCCOc3cccc4ccccc34)c3ccc(Cl)c-2c31 (single isomer, unassigned; enantiomer 2) [Example 15, 4-chloro-2,3-dimethyl-15-[2-(morpholin-4-yl)ethyl]-7-{3-[(naphthalen-1-yl)oxy]propyl}-2,10,11,12,13,15-hexahydropyrazolo[4′,3′:9,10][1,6]oxazacycloundecino[8,7,6-hi]indole-8-carboxylic Acid (Enantiomer 2)] | – | – | > 20 | – | 2.5 | – | – | 10.5 | 2.3 |
| CCc1c2c(nn1C)C(CCN1CCC(F)(F)C1)OCCCCn1c(C(=O)O)c(CCCOc3cccc4cc(F)ccc34)c3ccc(Cl)c-2c31 (single isomer, unassigned; enantiomer 1) [Example 56, 4-chloro-15-[2-(3,3-difluoropyrrolidin-1-yl)ethyl]-3-ethyl-7-{3-[(6-fluoronaphthalen-1-yl)oxy]propyl}-2-methyl-2,10,11,12,13,15-hexahydropyrazolo[4′,3′:9,10][1,6]oxazacycloundecino[8,7,6-hi]indole-8-carboxylic Acid—N-ethylethanamine Salt (Enantiomer 1)] | – | – | > 20 | – | 0.021 | 0.0226 | 0.018 | – | – |
| CCc1c2c(nn1C)C(CCCN1CCOCC1)OCCCCn1c(C(=O)O)c(CCCOc3cccc4cc(F)ccc34)c3ccc(Cl)c-2c31 (racemic) [Example 65, (rac)-4-chloro-3-ethyl-7-{3-[(6-fluoronaphthalen-1-yl)oxy]propyl}-2-methyl-(15-rac)-[3-(morpholin-4-yl)propyl]-2,10,11,12,13,15-hexahydropyrazolo[4′,3′:9,10][1,6]oxazacycloundecino[8,7,6-hi]indole-8-carboxylic Acid] | 0.078 | 0.0897 | > 20 | 0.048 | – | – | – | – | – |
| Cc1c2c(nn1C)C(CCO)OCCCCn1c(C(=O)O)c(CCCOc3cccc4ccccc34)c3ccc(Cl)c-2c31 (single isomer, unassigned; enantiomer 2) [Example 32, (−)-4-chloro-15-(2-hydroxyethyl)-2,3-dimethyl-7-{3-[(naphthalen-1-yl)oxy]propyl}-2,10,11,12,13,15-hexahydropyrazolo[4′,3′:9,10][1,6]oxazacycloundecino[8,7,6-hi]indole-8-carboxylic Acid (Enantiomer 2)] | – | – | > 20 | – | > 33 | – | – | 25.6 | > 33 |
| Cc1c2c(nn1C)C(C1CC1)OCCCCn1c(C(=O)O)c(CCCOc3cccc4ccccc34)c3ccc(Cl)c-2c31 (racemic) [Example 28, (rac)-4-Chloro-15-cyclopropyl-2,3-dimethyl-7-{3-[(naphthalen-1-yl)oxy]propyl}-2,10,11,12,13,15-hexahydropyrazolo[4′,3′:9,10][1,6]oxazacycloundecino[8,7,6-hi]indole-8-carboxylic Acid] | 3 | 10.9 | > 20 | 2.8 | – | – | – | – | – |
| Cc1c2c(nn1C)C(CCN1CCOCC1)OCCCCn1c(C(=O)O)c(CCCOc3cccc4cc(F)ccc34)c3ccc(Cl)c-2c31 (racemic) [Example 16, (rac)-4-chloro-7-{3-[(6-fluoronaphthalen-1-yl)oxy]propyl}-2,3-dimethyl-15-[2-(morpholin-4-yl)ethyl]-2,10,11,12,13,15-hexahydropyrazolo[4′,3′:9,10][1,6]oxazacycloundecino[8,7,6-hi]indole-8-carboxylic Acid] | 0.019 | 0.0483 | > 20 | 0.0068 | – | – | – | – | – |

Source: US11440923B2, “Substituted macrocyclic indole derivatives” (Bayer Aktiengesellschaft, priority 2017, dated 2022)
